Consider seven substances from patent US5473039A, “Polypeptide analogs of apolipoprotein E, diagnostic systems and methods using the analogs” (The Scripps Research Institute, priority 1991, dated 1995).

Assay [1] concerns Human peripheral blood mononuclear (PBM) cells. In words: PHA-stimulated PBM cell proliferation in serum-free CFBI medium. The format is cell-based. The settings on record: for IC50: read-out: Average Specific Activity (peptide concentration that causes a 50% reduction in activity). The procedure: In these studies, human peripheral blood mononuclear (PBM) cells were isolated and assayed for phytohemagglutinin (PHA)-stimulated proliferation as described by Pepe et al (J. Immunol., 136:3716-3723, 1986) except that the cells were resuspended and cultured in a serum-free and protein-free CFBI medium as described by Shive et al, Proc. Natl. Acad. Sci. […] After 48 h the cultures were pulsed for 18 h with […] of [^3 H]-methylthymidine and harvested onto glass fiber filters. Radioactivity of the filters was counted in a Beckman liquid scintillation counter. […] The average biological activity of each polypeptide for inhibiting lymphocyte […] proliferation is shown in Table 6, and is expressed as an average specific activity, which is the peptide concentration that causes a 50% reduction in activity.

A further assay deals with T1, fibroblast LDL receptors (Homo sapiens, UniProt P01130).
T1 construct: transferred to DMEM medium with 10% lipoprotein-depleted serum (LPDS) for 48 hr to upregulate the LDL receptors; endogenous in cells; host or cells: normal fibroblasts
T1 sequence (P01130 22-860): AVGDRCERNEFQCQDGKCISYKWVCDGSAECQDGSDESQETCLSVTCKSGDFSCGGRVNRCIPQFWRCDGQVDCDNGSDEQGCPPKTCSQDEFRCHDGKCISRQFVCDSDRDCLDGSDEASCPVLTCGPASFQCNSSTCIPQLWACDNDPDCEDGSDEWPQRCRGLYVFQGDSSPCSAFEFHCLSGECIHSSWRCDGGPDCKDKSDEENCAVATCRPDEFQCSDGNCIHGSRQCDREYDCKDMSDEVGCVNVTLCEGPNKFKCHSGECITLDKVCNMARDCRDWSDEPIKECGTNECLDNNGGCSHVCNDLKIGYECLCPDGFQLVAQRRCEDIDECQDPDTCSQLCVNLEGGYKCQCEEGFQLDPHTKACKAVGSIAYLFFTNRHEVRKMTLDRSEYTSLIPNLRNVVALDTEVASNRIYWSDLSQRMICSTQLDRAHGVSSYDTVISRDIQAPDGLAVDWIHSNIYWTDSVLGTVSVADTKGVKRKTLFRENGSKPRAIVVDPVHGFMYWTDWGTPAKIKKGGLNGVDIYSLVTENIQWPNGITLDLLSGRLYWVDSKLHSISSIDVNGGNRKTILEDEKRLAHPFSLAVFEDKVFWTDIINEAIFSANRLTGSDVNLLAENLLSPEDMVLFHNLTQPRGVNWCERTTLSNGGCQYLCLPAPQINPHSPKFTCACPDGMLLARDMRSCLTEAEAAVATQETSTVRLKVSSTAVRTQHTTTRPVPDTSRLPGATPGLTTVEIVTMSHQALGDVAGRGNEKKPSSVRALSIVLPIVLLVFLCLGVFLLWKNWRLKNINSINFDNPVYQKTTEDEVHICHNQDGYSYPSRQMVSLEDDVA
Put plainly: 125I-LDL binding to fibroblasts. The settings on record: for effect of substitution on ability to inhibit binding of 125I-LDL to fibroblasts: substitution at both positions of tandem peptide. An excerpt:
The role of specific amino acids within residues 141-155 of intact apo E has been studied by Lalazar et al., J. Biol. Chem., 263:3542 (1988) with human apo E variants containing single amino acid substitutions. The variants were produced in a bacterial expression system complexed with the phospholipid, dimyristoylphosphatidylcholine (DMPC) and tested for their ability to bind to fibroblast LDL receptors. Lalazar et al., J. Biol. Chem., 263:3542 (1988). To confirm that the tandem peptide was bound by the LDL receptor and to identify amino acids within this peptide that were critical for binding, three tandem peptides were prepared as described in Example 1 that contained the same amino acid substitutions at both positions in the tandem sequence. The changes included substitutions of the basic amino acids Lys 143 to Ala, Arg 150 to Ala, and Leu 144 with an alpha helix disrupting amino acid, Pro. ^125 I-LDL at a specific activity of 700-900 cpm/ng (>99% precipitable by 10% TCA) was used for the binding assay as described in Example 9. Normal fibroblasts were plated in 16 mm culture dishes, grown for 72-96 hr in DMEM medium with 10% fetal bovine serum (FBS) and then transferred to DMEM medium with 10% lipoprotein-depleted serum (LPDS) for 48 hr to upregulate the LDL receptors. The amount of ^125 I-LDL bound per well was normalized to the protein content of each well, which was measured with the Bio-Rad protein assay reagent using bovine serum albumin (BSA) as a standard.

The subject of assay [2] is Human peripheral blood mononuclear (PBM) cells. In words: PHA-stimulated lymphocyte proliferation (3H-thymidine uptake). The format is cell-based. The settings on record: for ED50 or dose of peptide required to inhibit lymphocyte proliferation 50%: Example 17. From the text: A lymphocyte cell culture system was used to examine the ability of various polypeptides and conjugates to mimic the ability of Apo E to inhibit lymphocyte differentiation as evidence by proliferation.
Human peripheral blood mononuclear (PBM) cells are isolated from whole blood on a Ficoll-Hypaque gradient. The collected PBMs are washed three times with fresh medium (RPMI-1640 plus 5% fetal bovine serum, glutamine, penicillin, streptomycin and HEPES buffer). After washing, the cells are counted and set at a density of 1×10^5 /ml. For culture, 0.2 ml of the cells are plated per well of a 96-well microtiter plate. The peptide or conjugate is added to the wells in a 50 ul volume that can be either filter or UV sterilized. The typical timing for this experiment is to expose the cells to the Apo E polypeptide or self-conjugate over night. PHA, the mitogen that stimulates lymphocyte growth and proliferation, is added the next day. Forty-eight hours after the addition of PHA, 1 uCi of ^3 H-thymidine is added per well in a 1 ul volume and 18-24 hours later the cells are harvested on a mash. The mash cell harvester functions to collect the cells on filter paper where they are washed with buffer to remove free ^3 H-thymidine. The filter papers are dried, put into scintillation vials with scintillation cocktail and the B emissions obtained. Each data point collected represents the average thymidine uptake in four wells, and the standard error was less than 10% for all data points.
Various concentrations of various Apo E peptide were added to cultures that contained 8×10^5 peripheral blood mononuclear cells per ml. The cells were cultured at 37C and RPMI with 5% serum. All cells were exposed to PHA at 24 hours, labeled with 3H-thymidine at 72 hours and harvested at 90 hours. The counts per minute (cpm) of 3H-thymidine in the harvested cells was measured, and the data are expressed as the mean of four wells per treatment as a measure of thymidine uptake (x 1000 cpm). The standard deviation was less than 10% for all means.

Another assay concerns the target LDL receptor (Homo sapiens, UniProt P01130). Put plainly: fibroblast 125I-LDL degradation. The format is cell-based. Also noted: transferred to DMEM medium with 10% lipoprotein-depleted serum (LPDS) for 48 hr to upregulate the LDL receptors; endogenous in cells; host or cells: normal fibroblasts. The conditions noted are these: molar basis. As for the experimental part:
A trimer of the p141-155 peptide, p(141-155)3, was synthesized as in Example 1 and its activity compared with p(141-155) (monomeric) and with p(141-155)2 (dimeric) peptide. Normal fibroblasts were plated in wells of a 96-well culture plate and grown for 96 hr in DMEM medium with 10% FBS. The cells were transferred to DMEM medium with 10% LPDS for 48 hr to up regulate the LDL receptors. The LDL degradation assay was performed according to Example 9 with 2 μg/ml of ^125 I-LDL (300-500 cpm/ng) in 0.2 ml/well in DMEM medium with 10% LPDS and incubated for 5 hr at 37° C. The supernatants removed from the wells were extracted with 10% TCA. The TCA soluble counts were normalized to protein content per well as measured by the Bio-Rad protein assay.

For assay [3], the system named is ovarian theca/interstitial cells. Put plainly: ovarian androgen (androstenedione) production, LH-stimulated cultures. The format is cell-based, rats. The conditions noted are these: non-conjugated, monomeric form. From the text:
The cell system used to examine the effect of various peptides and conjugates on ovarian androgen production was that described by Curtiss et al., J. Biol. Chem., 263:10965, (1988). Briefly, hypophysectomized (pituitary removed) immature female rats are sacrificed by cervical dislocation. The ovaries taken from the rats were trimmed free of fat and other non-ovarian tissues, cut into approximately six to eight pieces per ovary and dissociated in a solution of collagenase Dnaase which degrades the connective tissue releasing cell clusters. Approximately one to two hours of 37C incubation is required to dissociate the tissue. The cells were washed three times with fresh McCoy's 5A modified medium supplemented with glutamine and penicillin/streptomycin. No serum was added to this medium. The cells were cultured over night in 10 ml of medium in a T-25 flask to allow the non-steroidogenic cells to adhere. The next day non-adherent cells were recovered, washed three times with fresh media, counted and plated at a density of 1×10^3/ ml aliquotting 0.2 ml per well of a 96-well microtiter plate. All media in the experiment contains luteinizing hormone (LH) at 4 ng/ml and human high density lipoprotein (HDL) at 300 μg protein/mi. Monomeric peptides, peptide-BSA conjugates and self-conjugated peptide preparations at various concentrations (0.2 to 50 μg/ml) were added to the cells. The cells were then cultured for 48 hours at 37C, the supernatants were recovered, transferred to a clean 96-well microtiter plate and kept at -20C until the concentrations of androstenedione and progesterone were measured by radioimmunoassay. Each data point represents the average of measured androstenedione concentrations in four wells per treatment, and the standard error was less than 10% for all data points.
The ability of tandem Apo E peptide p(141-155)2 and self-conjugates of this peptide to affect ovarian androgen production was examined using the assay described in Example 4. […] After 48 hours of culture, the supernatants were collected, the androstenedione concentration measured by radioimmunoassay. […]

Ends that are not written are not given here.

Chain of LDL receptor (P01130 22-860): as above

Take “LRALRKRLLRDADDLLRALRKRLLRDADD [p(K143 --A)2]”: in assay [1], the “peptide concentration above which uptake of tritiated thymidine / lymphocyte proliferation was inhibited” value is listed as “above 4 uM” and the IC50 turned out to be 5.6 ± 1.7 µM. Moreover, the “effect of substitution on ability to inhibit binding of 125I-LDL to fibroblasts” value with fibroblast LDL receptors is reported as “smallest effect”.
For “LRKLRKRLLADADDLLRKLRKRLLADADD [p(K150 --A)2]”, in that order: “above 4 uM”, 7.5 ± 3 µM and “without significant alterations in the biological activity”.
For “LRKLRKRLLRDADDLLRKLRKRLLRDADD-LRKLRKRLLRDADDL [p(141-155)3]”, the “ED50 or dose of peptide required to inhibit lymphocyte proliferation 50%” value in assay [2] came to 7 µM. Moreover, the “effectiveness in inhibiting fibroblast 125I-LDL degradation relative to the dimeric peptide” value on LDL receptor is 15 times.
Take “LRKPRKRLLRDADDLLRKPRKRLLRDADDL [144 leu--pro, (LRKPRKRLLRDADDL)2]”: the “activity in inhibiting 125I-LDL binding to fibroblasts” value on fibroblast LDL receptors (at 60 μM) is “no activity”.
For the substance “RGLSAIRERL [p172-182, reference compound]”, the “effect on androgen secretion” value in assay [3] is “no effect”.
With “Self-conjugated apo AI95-105: self-conjugated control peptide of apo AI residues 95-105 (AKVQPYLDDFQ; also: self-conjugated; UniProt P02647 119-129, looked up, fragment) [reference compound]”, the “3H-Thymidine Uptake (cpm ± SD), With Washing” value in assay [2] (40 μg/ml, cells washed three times at 24 hr prior to PHA) is recorded as 64,524 ± 4,200 cpm. Moreover, in assay [2] (40 μg/ml, no washing), the “3H-Thymidine Uptake (cpm ± SD), No Washing” value was 83,480 ± 4,027 cpm.
For the substance Y(LRKLRKRLLRDADDL)4 [Tetramer], the “ED50 or dose of peptide required to inhibit lymphocyte proliferation 50%” value in assay [2] is 1.2 µM. Moreover, in assay [1] (molar basis), the “inhibitory activity relative to the dimer” value is on record as “twice”. In addition, in assay [1], the IC50 amounted to 2.8 ± 1.3 µM.
